Reference: ChEMBL document CHEMBL5244202, “Structural evolution of toll-like receptor 7/8 agonists from imidazoquinolines to imidazoles” (RSC Med Chem, 2021)

What was measured:
Toll-like receptor 7 [1] = biological target: T1, Toll-like receptor 7 (Homo sapiens, UniProt Q9NYK1); experiment: Agonist activity at human TLR7 by reporter cell based assay
T1 sequence (Q9NYK1 whole entry): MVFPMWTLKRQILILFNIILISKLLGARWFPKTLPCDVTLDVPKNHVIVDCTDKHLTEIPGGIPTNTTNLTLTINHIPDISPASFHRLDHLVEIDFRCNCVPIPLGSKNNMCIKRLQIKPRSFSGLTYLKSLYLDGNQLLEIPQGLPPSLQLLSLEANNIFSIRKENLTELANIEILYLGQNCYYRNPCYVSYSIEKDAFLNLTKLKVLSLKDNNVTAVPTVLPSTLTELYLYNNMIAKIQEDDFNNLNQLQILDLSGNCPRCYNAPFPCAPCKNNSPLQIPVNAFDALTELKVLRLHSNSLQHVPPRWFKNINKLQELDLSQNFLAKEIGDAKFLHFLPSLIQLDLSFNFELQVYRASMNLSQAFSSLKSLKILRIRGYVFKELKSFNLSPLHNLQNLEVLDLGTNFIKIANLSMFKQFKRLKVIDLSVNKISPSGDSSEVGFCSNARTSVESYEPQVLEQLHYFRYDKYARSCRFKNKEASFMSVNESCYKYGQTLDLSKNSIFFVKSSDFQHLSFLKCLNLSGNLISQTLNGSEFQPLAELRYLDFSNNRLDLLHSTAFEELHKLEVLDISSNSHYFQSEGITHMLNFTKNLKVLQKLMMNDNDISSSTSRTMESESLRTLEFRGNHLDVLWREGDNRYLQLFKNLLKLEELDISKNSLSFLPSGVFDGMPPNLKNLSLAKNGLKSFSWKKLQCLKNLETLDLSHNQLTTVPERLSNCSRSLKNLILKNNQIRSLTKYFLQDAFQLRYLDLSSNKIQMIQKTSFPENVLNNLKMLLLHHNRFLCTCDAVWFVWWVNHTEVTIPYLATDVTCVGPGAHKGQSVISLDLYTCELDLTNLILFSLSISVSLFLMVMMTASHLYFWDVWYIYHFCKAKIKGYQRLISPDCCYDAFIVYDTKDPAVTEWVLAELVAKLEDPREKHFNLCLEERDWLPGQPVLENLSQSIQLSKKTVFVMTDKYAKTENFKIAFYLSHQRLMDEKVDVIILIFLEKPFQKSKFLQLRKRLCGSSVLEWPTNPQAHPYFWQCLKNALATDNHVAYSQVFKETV

Toll-like receptor 8 = biological target: T2, Toll-like receptor 8 (Homo sapiens, UniProt Q9NR97); experiment: Agonist activity at human TLR8 in HEK-Blue hTLR8 cells assessed as activation of NFkappaB by SEAP reporter gene based spectrophotometry assay; type: cell-based
T2 sequence (Q9NR97 whole entry): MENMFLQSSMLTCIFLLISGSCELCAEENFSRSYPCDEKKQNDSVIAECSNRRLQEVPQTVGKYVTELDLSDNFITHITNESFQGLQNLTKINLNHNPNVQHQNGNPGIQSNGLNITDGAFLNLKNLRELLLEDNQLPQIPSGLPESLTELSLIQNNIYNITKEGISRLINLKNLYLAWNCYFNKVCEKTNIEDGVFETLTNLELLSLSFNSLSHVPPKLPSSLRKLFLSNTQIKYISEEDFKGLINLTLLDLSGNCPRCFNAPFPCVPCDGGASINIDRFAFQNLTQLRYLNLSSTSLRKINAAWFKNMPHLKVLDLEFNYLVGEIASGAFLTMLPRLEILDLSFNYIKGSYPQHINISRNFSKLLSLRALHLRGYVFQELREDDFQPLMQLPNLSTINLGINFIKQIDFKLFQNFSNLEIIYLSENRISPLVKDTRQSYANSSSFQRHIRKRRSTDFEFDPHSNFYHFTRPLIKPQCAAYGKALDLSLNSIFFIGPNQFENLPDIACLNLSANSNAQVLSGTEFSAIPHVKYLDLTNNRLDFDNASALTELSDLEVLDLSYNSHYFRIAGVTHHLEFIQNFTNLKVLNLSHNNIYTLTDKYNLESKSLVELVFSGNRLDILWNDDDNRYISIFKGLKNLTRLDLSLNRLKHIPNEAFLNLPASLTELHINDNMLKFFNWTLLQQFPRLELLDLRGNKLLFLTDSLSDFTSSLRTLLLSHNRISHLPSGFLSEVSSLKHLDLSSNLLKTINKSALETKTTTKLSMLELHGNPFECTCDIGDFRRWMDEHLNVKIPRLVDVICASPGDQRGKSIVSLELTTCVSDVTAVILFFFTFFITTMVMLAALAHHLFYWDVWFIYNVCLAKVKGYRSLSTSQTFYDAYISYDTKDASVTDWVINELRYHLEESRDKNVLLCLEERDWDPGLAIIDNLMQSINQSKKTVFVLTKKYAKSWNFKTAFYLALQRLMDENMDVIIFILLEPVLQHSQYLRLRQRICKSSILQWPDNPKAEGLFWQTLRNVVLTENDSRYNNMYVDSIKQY

Toll-like receptor 7 [2] = biological target: T1, Toll-like receptor 7; experiment: Agonist activity at recombinant human TLR7 transfected in HEK293 cells assessed as induction of SEAP production incubated overnight by SEAP reporter gene based assay; type: cell-based
Toll-like receptor 7 [3] = biological target: T1, Toll-like receptor 7; experiment: Agonist activity at human TLR7 in HEK-Blue hTLR7 cells assessed as activation of NFkappaB by SEAP reporter gene based spectrophotometry assay; type: cell-based

SMILES | EC50 (Toll-like receptor 7 [1]) | also measured
CCCCc1nc2c(N)nc3ccccc3c2n1CCCN(Cc1cccc(C(=O)OC)c1)C(=O)CN1CCN(C(C)=O)CC1 | 1.26 µM | –
CCCCc1nc2c(N)nc3ccccc3c2n1CCCN(Cc1cccc(C(=O)OC)c1)C(=O)CN1CCC1 | 0.251 µM | –
COCCc1nc2c(N)nc3ccccc3c2n1CCCN(Cc1ccc(CC(=O)OC)cc1)C(=O)CCN(C)C | 0.158 µM | –
CCCCc1nc2c(N)nc3ccccc3c2n1CCCN(Cc1cccc(C(=O)OC)c1)C(=O)CN1CCCN(C(C)=O)CC1 | 0.501 µM | –
CCCc1nc2c(NC(=O)CCN=[N+]=[N-])nc3ccccc3c2s1 | – | EC50 (Toll-like receptor 8; hek-blue htlr8): 2.23 µM
CCC[C@@H](CCO)Nc1nc(N)nc(C)c1Cc1ccc(CN2CCCC2)cc1OC | – | EC50 (Toll-like receptor 7 [2]): < 0.00195 µM
CCCCc1nc2c(N)nc3ccccc3c2n1CCCN(Cc1cccc(C(=O)OC)c1)C(=O)CN1CCCN(C(=O)NCC)CC1 | 1.26 µM | –
CCC[C@@H](CO)Nc1nc(N)nc(C)c1Cc1ccc(CNCCO)cc1OC | – | EC50 (Toll-like receptor 7 [2]): 0.0955 µM
CCCC[C@@H](CCO)Nc1nc(N)nc(C)c1Cc1ccc(CC(=O)OCCCCN(C)C)cc1 | 0.0251 µM | –
CCCC[C@@H](CCO)Nc1nc(N)nc(C)c1Cc1ccc(CC(=O)OCCCCN(C)C)cc1F | 0.2 µM | –
CCCC[C@@H](CCO)Nc1nc(N)nc(C)c1Cc1ccc(CC(=O)OCCCCN2CCN(C)CC2)cc1F | 0.0251 µM | –
CCCCc1nc2c(N)nc3ccccc3c2n1CCCN(Cc1cccc(C(=O)OC)c1)C(=O)CN(C)CCCC | 0.126 µM | –
CCCCc1nc2c(N)nc3ccccc3c2n1CCCN(Cc1cccc(C(=O)OC)c1)C(=O)CN1CCN(C)CC1 | 0.0794 µM | –
CCCCc1nc2c(N)nc(NCc3ccc(OC)cc3)cc2n1Cc1ccccc1 | – | EC50 (Toll-like receptor 7 [3]): 0.075 µM
CCC[C@@H](CCO)Nc1nc(N)nc(C)c1Cc1ccc(Cn2ccnc2)cc1OC | – | EC50 (Toll-like receptor 7 [2]): 0.00275 µM
CCCCc1nc2c(NC=O)nc3ccccc3c2s1 | – | EC50 (Toll-like receptor 7 [3]; hek-blue htlr7): 2.54 µM
CCCC[C@@H](CCO)Nc1nc(N)nc(C)c1Cc1ccc(CC(=O)OCC2CCN(C)CC2)cc1F | 0.0398 µM | –
CCCCc1nc2c(N)nc3ccccc3c2n1CCCN(Cc1cccc(C(=O)OC)c1)C(=O)CN1CC[C@@H](O)C1 | 0.398 µM | –
CCCCc1nc2c(N)nc3ccccc3c2n1CCCN(Cc1cccc(C(=O)OC)c1)C(=O)CN1CCCC1 | 0.0631 µM | –
CCCCc1nc2c(N)nc3ccccc3c2n1CCCN(Cc1cccc(C(=O)OC)c1)C(=O)CN1CCCN(C)CC1 | 0.251 µM | –
CCC[C@@H](CCO)Nc1nc(N)nc(C)c1Cc1ccc(CN2CCNCC2)cc1OC | – | EC50 (Toll-like receptor 7 [2]): 0.00589 µM

SMILES | EC50 (Toll-like receptor 7 [1]) | also measured
CCCC[C@@H](CO)Nc1nc(N)nc(C)c1Cc1ccc(CC(=O)OCCCCN(C)C)cc1 | 1.26 µM | –
CCCCc1nc2c(N)nc3ccccc3c2n1CCCN(Cc1cccc(C(=O)OC)c1)C(=O)CN1CCN(S(C)(=O)=O)CC1 | 0.794 µM | –
CCCCCNc1nc(N)nc(C)c1Cc1cccc(CC(=O)OCCCCN(C)C)c1 | 0.0316 µM | –
CCCCc1nc2c(N)nc(NCC3CCCCC3)cc2n1Cc1ccccc1 | – | EC50 (Toll-like receptor 7 [3]): 0.32 µM
CCCCc1nc2c(N)nc3ccccc3c2n1CCCN(Cc1cccc(C(=O)OC)c1)C(=O)CN(C)CCOC | 0.158 µM | –
CCCCc1nc2c(N)nc3ccccc3c2n1CCCN(Cc1cccc(C(=O)OC)c1)C(=O)CN(CCC)CCC | 0.0794 µM | –
CCC[C@@H](CO)Nc1nc(N)nc(C)c1Cc1ccc(CN(C)C)cc1OC | – | EC50 (Toll-like receptor 7 [2]): 0.00229 µM
CCCCc1nc2c(N)nc3ccccc3c2n1CCCN(Cc1cccc(C(=O)OC)c1)C(=O)CN1CCC(C(=O)N(C)C)CC1 | 0.631 µM | –
CCCCc1nc2c(N)nc3ccccc3c2n1CCCN(Cc1cccc(C(=O)OC)c1)C(=O)CN1CCCCCC1 | 0.0794 µM | –
CCCCc1nc2c(N)nc3ccccc3c2n1CCCN(Cc1cccc(C(=O)OC)c1)C(=O)CN(C)C | 0.0398 µM | –
CCCCCNc1nc(N)nc(C)c1CCCN(Cc1cccc(CC(=O)OC)c1)C(=O)CN1CCC[C@@H]1C(=O)OC | 0.631 µM | –
CCCCc1nc2c(N)nc3ccccc3c2n1CCCN(Cc1cccc(C(=O)OC)c1)C(=O)CN1CCC(O)CC1 | 0.501 µM | –
CCCc1nc2c(N)nc3ccc(-n4cc([Si](C)(C)C)nn4)cc3c2s1 | – | EC50 (Toll-like receptor 8; hek-blue htlr8): 9.84 µM
CCC[C@@H](CO)Nc1nc(N)nc(C)c1Cc1ccc(CNC2CNC2)cc1OC | – | EC50 (Toll-like receptor 7 [2]): 0.38 µM
CCCCc1nc2c(N)nc3ccccc3c2n1CCCN(Cc1cccc(C(=O)OC)c1)C(=O)CN1CCCOCC1 | 0.398 µM | –
CCCCc1nc2c(N)nc3ccccc3c2n1CCCN(Cc1cccc(C(=O)OC)c1)C(=O)CN1C[C@@H](C)O[C@@H](C)C1 | 1 µM | –
CCCc1nc2c(NS(C)(=O)=O)nc3ccccc3c2s1 | – | EC50 (Toll-like receptor 8; hek-blue htlr8): 10.6 µM
CCCCc1nc2c(N)nc3ccccc3c2n1CCCN(CCCN(C)CC)Cc1cccc(C(=O)OC)c1 | 0.158 µM | –
CCCCc1nc2c(N)nc3ccccc3c2n1CCCN(Cc1cccc(C(=O)OC)c1)C(=O)CN1CCC(OC)CC1 | 0.2 µM | –
CCCc1nc2c(N)nc3ccc(N)cc3c2s1 | – | EC50 (Toll-like receptor 8; hek-blue htlr8): 3.88 µM
CCCCc1nc2c(N)nc3ccccc3c2n1CCCN(CCCN(C)C)Cc1cccc(C(=O)OC)c1 | 0.251 µM | –

SMILES | EC50 (Toll-like receptor 7 [1]) | also measured
CCCC[C@@H](CCO)Nc1nc(N)nc(C)c1Cc1ccc(CC(=O)OCCC2CCN(C)CC2)cc1F | 0.0316 µM | –
CCCCc1nc2c(N)nc(NCc3cccnc3)cc2n1Cc1ccccc1 | – | EC50 (Toll-like receptor 7 [3]): 0.25 µM
CCCCc1nc2c(N)nc3ccccc3c2n1CCCN(Cc1cccc(C(=O)OC)c1)C(=O)CN1CC(O)C1 | 1.58 µM | –
CCCCc1nc2c(N)nc3ccccc3c2n1CCCN(Cc1cccc(C(=O)OC)c1)C(=O)CN1CCN(CCO)CC1 | 0.501 µM | –
CCCCc1nc2c(N)nc3ccccc3c2n1CCCN(CCCN1CCN(C)CC1)Cc1cccc(C(=O)OC)c1 | 0.251 µM | –
CCCCCNc1nc(N)nc(C)c1CCCN(Cc1ccc(CC(=O)OC)cc1)C(=O)CN1CCCCC1 | 0.631 µM | –
Cc1nc2c(N)nc3ccccc3c2s1 | – | EC50 (Toll-like receptor 7 [3]; hek-blue htlr7): 10.2 µM
CCCCc1nc2c(N)nc3ccccc3c2n1CCCN(Cc1cccc(C(=O)OC)c1)C(=O)CN(CCO)CCO | 1.58 µM | –
CC[C@H](C)c1nc2c(N)nc3ccccc3c2s1 | – | EC50 (Toll-like receptor 8; hek-blue htlr8): 2.77 µM
CCCCc1nc2c(N)nc3ccccc3c2n1CCCN(Cc1cccc(C(=O)OC)c1)C(=O)CN(C)C1CCOCC1 | 0.126 µM | –
CCCCc1nc2c(N)nc3ccccc3c2n1CCCN(CCCN1CCOCC1)Cc1cccc(C(=O)OC)c1 | 0.251 µM | –
CCCCCNc1nc(N)nc(C)c1CCCN(Cc1ccc(CC(=O)OC)cc1)C(=O)CC1CCN(C)CC1 | 0.794 µM | –
CCCCc1nc2c(N)nc3ccccc3c2n1CCCN(Cc1cccc(C(=O)OC)c1)C(=O)CN1CCCCC1 | 0.0794 µM | –
CCCc1nc2c(NC=O)nc3ccccc3c2s1 | – | EC50 (Toll-like receptor 8): 0.88 µM
CCC[C@@H](CCO)Nc1nc(N)nc(C)c1Cc1ccc(CN2CCN(C)CC2)cc1OC | – | EC50 (Toll-like receptor 7 [2]): < 0.00195 µM
CCCCc1nc2c(N)nc3ccccc3c2n1CCCN(Cc1cccc(C(=O)OC)c1)C1CCN(C)CC1 | 0.316 µM | –
CCCCc1nc2c(N)nc3ccccc3c2n1CCCN(Cc1cccc(C(=O)OC)c1)C(=O)CN1CCC(O)C1 (stereo unspecified) | 0.398 µM | –
CCC[C@@H](CCO)Nc1nc(N)nc(C)c1Cc1ccc(CN(C)CCOC)cc1OC | – | EC50 (Toll-like receptor 7 [2]): < 0.00195 µM
CCCCc1nc2c(N)nc3ccccc3c2n1CCCN(Cc1cccc(C(=O)OC)c1)C(=O)CN1CCCN(S(C)(=O)=O)CC1 | 0.631 µM | –
